Series [1] can be described thus: Ionization constant (pKa2) by treating potentiometric titration data according to the method Noyes. The following applies: read-out: pKa2. The format is physicochemical.
Series [2] concerns the target T1, Tyrosine-protein phosphatase non-receptor type 1 (Homo sapiens, UniProt P18031).
T1 sequence (P18031 whole entry): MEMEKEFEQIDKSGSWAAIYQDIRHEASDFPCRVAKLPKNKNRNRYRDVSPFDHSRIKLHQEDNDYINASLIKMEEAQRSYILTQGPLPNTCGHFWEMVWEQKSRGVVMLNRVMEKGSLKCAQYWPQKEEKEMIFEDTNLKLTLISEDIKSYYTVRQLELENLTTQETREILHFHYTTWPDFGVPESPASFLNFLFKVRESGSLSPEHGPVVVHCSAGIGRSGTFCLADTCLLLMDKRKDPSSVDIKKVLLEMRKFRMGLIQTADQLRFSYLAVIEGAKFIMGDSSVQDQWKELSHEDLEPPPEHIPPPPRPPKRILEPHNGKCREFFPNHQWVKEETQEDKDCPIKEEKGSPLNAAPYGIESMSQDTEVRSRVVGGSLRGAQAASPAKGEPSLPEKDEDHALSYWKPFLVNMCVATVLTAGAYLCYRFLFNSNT
Briefly: Inhibitory activity against Protein-tyrosine phosphatase 1B-mediated dephosphorylation of phosphorylated insulin receptor using (CHO) cell line transfected with an expression plasmid encoding the normal human insulin receptor [CHO/HIRc].

Series [3] is described as follows: Inhibition of binding to p85 Phosphatidylinositol 3-kinase C-terminal SH2 domain.

6 compounds from ChEMBL document CHEMBL1129503, “4'-O-[2-(2-fluoromalonyl)]-L-tyrosine: a phosphotyrosyl mimic for the preparation of signal transduction inhibitory peptides” (J Med Chem, 1996) can be followed below.

Where a SMILES comes first, the peptide text is derived from it. The star is where a group is joined. X2 = O=C(O)C(F)(C(=O)O)*; X1 = O=C(O)C(C(=O)O)*

Take `O=C(O)C(F)(Oc1ccc2cc(Br)ccc2c1)C(=O)O`: the pKa in series [1] was 2.84.

As for `O=C(O)C(Oc1ccc2cc(Br)ccc2c1)C(=O)O`, the pKa in series [1] was 3.91. What is called IC50 is the concentration that inhibits the measured activity by half. A low value points to higher potency. In series [2], `CC(=O)N[C@@H](CC(=O)O)C(=O)N[C@@H](C)C(=O)N[C@@H](CC(=O)O)C(=O)N[C@@H](CCC(=O)O)C(=O)N[C@@H](Cc1ccc(OC(C(=O)O)C(=O)O)cc1)C(=O)N[C@@H](CC(C)C)C(N)=O` (Ac-DADEY(X1)L-NH2) showed an IC50 of 10 µM.

In the case of `CC(=O)N[C@@H](CC(=O)O)C(=O)N[C@@H](C)C(=O)N[C@@H](CC(=O)O)C(=O)N[C@@H](CCC(=O)O)C(=O)N[C@@H](Cc1ccc(OC(F)(C(=O)O)C(=O)O)cc1)C(=O)N[C@@H](CC(C)C)C(N)=O` (Ac-DADEY(X2)L-NH2), the IC50 in series [2] is 1 µM. In series [3], `CSCC[C@H](NC(=O)[C@@H]1CCCN1C(=O)[C@@H](NC(=O)[C@H](Cc1ccc(OC(C(=O)O)C(=O)O)cc1)NC(=O)[C@H](CC(=O)O)NC(C)=O)C(C)C)C(=O)N[C@@H](CC(C)C)C(N)=O` (Ac-DY(X1)VPML-NH2) gave an IC50 of 14 µM. Same read-out and setting: to `CSCC[C@H](NC(=O)[C@@H]1CCCN1C(=O)[C@@H](NC(=O)[C@H](Cc1ccc(OC(F)(C(=O)O)C(=O)O)cc1)NC(=O)[C@H](CC(=O)O)NC(C)=O)C(C)C)C(=O)N[C@@H](CC(C)C)C(N)=O` (Ac-DY(X2)VPML-NH2) belongs 18 µM.
